The series concerns GVHD in GF B6 BMT recipients. The following applies: mouse, in vivo. From the text:
(A) The details of the experimental design were shown in FIG. 12G to L. Quantification of iron in stool from colon and ileum in Allo B6 and Allo B6 deferasirox at 7 day and 21 day after BMT were shown (Day7, N=2, Day21, Vehicle: N=4, Deferasirox: N=2). (B) The percent of IFNγ+CD4, IFNγ+CD8, and Treg cells in spleen from recipients at day7 after BMT were shown (N=4). (C) The cytokine levels of IFNγ, TNFα, and IL17A in serum from recipients at day7 after BMT were shown (Vehicle: N=3, Deferasirox: N=4). (D to F) GF mice received BMT from BALB/c donor mice. BMT recipients were orally treated with deferasirox (20 mg/kg) and vehicle every day. (D) Hypoxyprobe staining and relative fluorescent intensity in colon from recipients 21 days after BMT (scale bar=50 μm). Three independent experiments were performed. Survival rate (E) and clinical GVHD score (F) of BMT recipients (Syn GF vehicle: N=2, Syn GF deferasirox: N=2, Allo GF vehicle: N=8, Allo GF deferasirox: N=10). The horizontal line in box (C) represents the median with the box bounding the interquartile range. The ends of the whisker lines represent the minimum and maximum values. […]
Because alteration of O2 affects host IECs in addition to the microbiome, we next determined whether restoring intestinal hypoxia by Fe chelation after allo-HSCT mitigated GVHD independent of its impact on dysbiosis. […]

This is an account of results in patent US20260232774A1, “COMPOSITIONS AND METHODS FOR TREATING INTESTINAL MICROBIOME DYSBIOSIS” (The Regents of the University of Michigan, priority 2023, published 2026).

On to `O=C(O)c1ccc(-n2nc(-c3ccccc3O)nc2-c2ccccc2O)cc1` [deferasirox], for which the “survival and GVHD of syngeneic GF mice” value is given as “survived without GVHD”.
